# From patent US20210292710A1, “METHOD FOR ENHANCING IMMUNE FUNCTION OF IMMUNE CELL AND IMMUNE CELL LINE PRODUCED USING THE SAME” (INDUSTRY-ACADEMIC COOPERATION FOUNDATION, YONSEI UNIVERSITY, priority 2020, published 2021)
# Tests used:
# GLUT1 [1] = assay: GLUT1 expression in T cells due to PI3K inhibitor and mTORC1 inhibitor treatment; format: cell-based; conditions: RAD001 as mTORC1 inhibitor, p<0.05
# Description: Furthermore, referring to FIG. 8, AKT and GLUT1 expression levels in T cells due to PI3K inhibitor and mTORC1 inhibitor treatment are shown. In this connection, RAD001 is used as a mTORC1 inhibitor. Furthermore, referring to (b) of FIG. 8, the GLUT1 expression level in T cells due to PI3K inhibitor and mTORC1 inhibitor treatment is shown.
# pAKT (phosphoAKT) = assay: pAKT expression in CD4 and CD8 T cells by flow cytometry (MFI); format: cell-based, mouse; conditions: for AKT expression relative to control: after 48 hours
# Method: First, referring to FIG. 6, an expression level of pAKT (phosphoAKT) in an active state in the T cell due to PI3K inhibitor treatment is shown. In this connection, in order to identify AKT activation of T cells due to PI3K inhibitor treatment, the CD3+ T cells obtained in FIG. 2 are used. Furthermore, the obtained CD3+ T cells are co-cultured for 48 hours together with CD11c positive dendritic cells, anti-CD3 and anti-CD28. The pAKT expression is measured via flow cytometry in 6 and 48 hours after the co-culture has started. Furthermore, expression of pAKT is indicated as mean fluorescence intensity (MFI). Furthermore, CD4 and CD8 positive cells are used as T cells to measure expression of pAKT. In this connection, CD4 and CD8 are present in the cell membrane of the T cell and are cell-binding proteins that bind to non-polymorphic regions of class II MHC and class I MHC, respectively. CD4 may be a helper T cell as a T cell lineage marker. CD8 may refer to a cytotoxic T cell.
# [2] = system: lung-cancer cell line LLC2; assay: Percentage of immune cells relative to lung-cancer cell line LLC2; format: in vivo
# Description: Referring to FIG. 9B, the percentage of immune cells relative to the lung-cancer cell line LLC2 due to PI3K inhibitor treatment is shown. Referring first to FIG. 9B (a), the percentage of CD3+ CD8+ T cells relative to LLC2 as a lung-cancer cell line due to PI3K inhibitor treatment is shown. In this connection, CD3+ CD8+ T cells may refer to cytotoxic T cells (Tc cells) capable of destroying damaged cells, infected cells, and tumor cells. Next, referring to (b) of FIG. 9B, the percentage of CD3+ CD4+ CD25+ Foxp3 T cells relative to LLC2 as a lung-cancer cell line due to the PI3K inhibitor treatment is shown. In this connection, the CD3+ CD4+ CD25+ Foxp3 T cells refer to regulatory T cells (Treg) that may maintain immuno-tolerance and autoimmunity, that is, may inhibit the immune response of other cells. Next, referring to (c) of FIG. 9B, the percentage of CD3+ TIL cells relative to LLC2 as a lung-cancer cell line due to the PI3K inhibitor treatment is shown. In this connection, CD3+ TIL cell may refer to a tumor infiltrating lymphocyte (TIL) that infiltrates a tumor cell cluster, thereby enhancing the T cell's tumor killing ability, that is, an anti-cancer effect of the T cell. Next, referring to (d) of FIG. 9B, the percentage of MDSC cells relative to the lung-cancer cell line LLC2 due to the PI3K inhibitor treatment is shown. In this connection, the MDSC cell may refer to immature myeloid cells which inhibit the immune response of immune cells such as T cells and NK cells, and induce the generation of regulatory T cells (Treg), thereby to promote the growth of cancer cells.
# GLUT1 [3] = assay: GLUT1 protein expression level of T cell; format: cell-based, mouse; conditions: CD3+ T cells activated 72 hours with anti-CD3 and anti-CD28 beads
# Method: (§1) Thus, referring to FIG. 4B, the results of mRNA expression of enzymes involved in glycolysis of T cells due to PI3K inhibitor treatment are shown. In this connection, in order to identify enzymes involved in glycolysis of T cells due to PI3K inhibitor treatment, the CD3+ T cells obtained in FIG. 2 are used. Furthermore, the obtained CD3+ T cell is activated for 72 hours using anti-CD3 and anti-CD28 beads to identify mRNA expression of enzymes involved in glycolysis. In this connection, CD3 secretes cytokine as a protein immunomodulator, and CD28 inhibits apoptosis. Only CD3-activated T cells may lead to apoptosis. Therefore, both CD3 and CD28 signals are used to increase T cell function and survival. Furthermore, referring to FIG. 5A, the result of GLUT1 protein expression level of T cell due to PI3K inhibitor treatment is shown. In this connection, T cell is treated in the same method as in FIG. 4B.
# [4] = system: enzymes involved in glycolysis of T cells; assay: mRNA expression of enzymes involved in T cell glycolysis; format: cell-based, mouse; conditions: CD3+ T cells activated 72 hours with anti-CD3 and anti-CD28 beads
# Method: as §1, with “survival.” for “survival. Furthermore, referring to FIG. 5A, the result of GLUT1 protein expression level of T cell due to PI3K inhibitor treatment is shown. In this connection, T cell is treated in the same method as in FIG. 4B.”
smiles,measurement,setting,value
"Nc1cc(C(F)(F)F)c(-c2cc(N3CCOCC3)nc(N3CCOCC3)n2)cn1 [BKM 120, buparlisib]","GLUT1 expression in iPI3K+/imTOR− group relative to iPI3K−/imTOR−, iPI3K−/imTOR+ and iPI3K+/imTOR+ groups",GLUT1 [1],6 to 7 times
same,AKT expression level relative to the AKT expression level at the start of culture,pAKT (phosphoAKT); 48 hours after the start of culture,≥ 3 times
same,AKT expression versus control,"pAKT (phosphoAKT); cytotoxic T cells (CD8), 0 to 25 hours",lower AKT expression than that of the control
same,AKT expression versus control,"pAKT (phosphoAKT); cytotoxic T cells (CD8), after 25 hours",higher AKT expression than that of the control
same,AKT expression relative to control,pAKT (phosphoAKT); cytotoxic T cells (CD8),1.3 to 1.7 times
same,AKT expression versus control,"pAKT (phosphoAKT); helper T cell (CD4), 0 to 20 hours",lower AKT expression than that of the control
same,AKT expression versus control,"pAKT (phosphoAKT); helper T cell (CD4), after 20 hours",higher AKT expression than that of the control
same,AKT expression relative to control,pAKT (phosphoAKT); helper T cell (CD4),1.5 to 2 times
same,time after the start of the culture at which the AKT level is increased again to the level before the PI3K treatment,pAKT (phosphoAKT); immune cells cultured after PI3K inhibitor treatment,20 h
same,average percentage of CD3+ CD4+ CD25+ Foxp3 T cells (Treg),[2]; 35 mpk,17%
same,average percentage of CD3+ CD8+ T cells,[2]; 35 mpk,38%
same,average percentage of MDSC cells,[2]; 35 mpk,32%
same,distribution of percentage of CD3+ CD4+ CD25+ Foxp3 T cells (Treg),[2]; 35 mpk,16 to 19%
same,distribution of percentages of CD3+ CD8+ T cells,[2]; 35 mpk,35 to 42%
same,distribution of the percentage of MDSC cells,[2]; 35 mpk,31 to 33%
same,percentage of CD3+ TIL cells on average,[2]; 35 mpk,0.4%
same,average percentage of CD3+ CD4+ CD25+ Foxp3 T cells (Treg),[2]; 50 mpk,15%
same,average percentage of CD3+ CD8+ T cells,[2]; 50 mpk,42%
same,average percentage of MDSC cells,[2]; 50 mpk,24%
same,distribution of percentage of CD3+ CD4+ CD25+ Foxp3 T cells (Treg),[2]; 50 mpk,13 to 17%
same,distribution of percentages of CD3+ CD8+ T cells,[2]; 50 mpk,37 to 50%
same,distribution of the percentage of MDSC cells,[2]; 50 mpk,22 to 26%
same,percentage of CD3+ TIL cells on average,[2]; 50 mpk,0.9%
same,GLUT1 expression level relative to control,GLUT1 [3],6 to 7 times
same,percentage of T cells expressing GLUT1 among all T cells,GLUT1 [3],60 to 70%
same,mRNA expression of each glycolysis enzyme versus spleen T cells and CD3+CD28-stimulated T cells,[4],higher
